Assay results reported in PubChem BioAssay (NCI).
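Five compound concentrations were applied to cells in 96-well plates for 48 hours; endpoints were derived by simple linear interpolation of the resulting dose-response curve. At the TGI there is no net growth.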

Columns and labels:
Test in all cases: DTP human tumour cell line panel, 48 h
MDA-N = test system: MDA-N
HCT-15 colon = test system: HCT-15 colon
OVCAR-5 ovarian = test system: OVCAR-5 ovarian
MCF7 breast = test system: MCF7 breast
HL-60(TB) leukemia = test system: HL-60(TB) leukemia
CCRF-CEM leukemia = test system: CCRF-CEM leukemia
OVCAR-8 ovarian = test system: OVCAR-8 ovarian
HS 578T breast = test system: HS 578T breast
HCT-116 colon = test system: HCT-116 colon
786-0 renal = test system: 786-0 renal
KM12 colon = test system: KM12 colon

SMILES | TGI (MDA-N) [µM] | TGI (HCT-15 colon) [µM] | TGI (OVCAR-5 ovarian) [µM] | TGI (MCF7 breast) [µM] | TGI (HL-60(TB) leukemia) [µM] | TGI (CCRF-CEM leukemia) [µM] | TGI (OVCAR-8 ovarian) [µM] | TGI (HS 578T breast) [µM] | TGI (HCT-116 colon) [µM] | TGI (786-0 renal) [µM] | TGI (KM12 colon) [µM]
Cc1ccc(/C(O)=C/C(=O)C(=O)NN=C(c2ccccc2)c2ccccc2)cc1 | > 100 | > 100 | > 100 | > 100 | > 100 | > 100 | > 100 | > 100 | > 100 | > 100 | > 100
Cc1ccc2nc(NC(=O)/C(Cc3nc4ccc(Cl)cc4[nH]c3=O)=N\NC(C)(C)C)sc2c1 | > 100 | > 100 | > 100 | > 100 | > 100 | > 100 | > 100 | 73 | > 100 | > 100 | > 100
COC(=O)C1=C(OC(=O)c2ccccc2)C(C(=O)OC)[C@]2(O)[C@@H](C(=O)OC)[C@H]1C[C@@H](c1ccccc1)[C@@H]2C(=O)OC (stereo not given in full) | 3.95 | 35.4 | 73.9 | 15.7 | 21.1 | 10.6 | 20.3 | 72.2 | 14.2 | 93.8 | > 100
CCOP(=O)(OCC)C(C)(CC)NC (stereo not given) | > 100 | > 100 | > 100 | > 100 | > 100 | 77.1 | > 100 | > 100 | > 100 | > 100 | > 100
COC(=O)c1c(O)ccc2c1C1(Cc3ccccc3C1=O)C(O)O2 (stereo not given) | 28.7 | 54.2 | 51.7 | > 100 | 40.4 | 11.7 | 36.7 | 61 | 32.6 | 30.2 | 69.1
Fc1ccccc1C1SCc2nc3cc4ccccc4cc3n21 (stereo not given) | > 100 | > 100 | > 100 | > 100 | > 100 | > 100 | > 100 | 96.4 | > 100 | 51.5 | > 100
COc1cc([C@@H]2c3cc(O)c(OC)cc3C=C(C(N)=O)[C@H]2C(N)=O)ccc1O | > 100 | > 100 | > 100 | > 100 | > 100 | > 100 | > 100 | > 100 | > 100 | > 100 | > 100
CSCCC(NC(=O)Cc1ccc(C(=O)c2ccccc2)cc1)C(=O)O (stereo not given) | > 100 | > 100 | > 100 | > 100 | > 100 | > 100 | > 100 | > 100 | > 100 | > 100 | > 100
OC1(c2ccccc2)CSC2=Nc3ccccc3C3CCN1N23 (stereo not given) | 27.2 | 39.1 | 32 | 46 | 71.1 | 94.1 | 43.5 | > 100 | 44.1 | 34.4 | 42
CCC(c1c[nH]c2ccc(Br)cc12)c1c[nH]c2ccc(Br)cc12 | 16 | 15 | 16.6 | 15.5 | 16.3 | 13.7 | 21.2 | 27 | 15.1 | 11.2 | 4.22
C[C@H]1C=C2[C@@H]3CC(C)(C(=O)O)CC[C@]3(C)CC[C@]2(C)[C@]2(C)CC[C@H]3C(C)(C)[C@@H](OC(=O)c4cccc5c(=O)c6ccccc6[nH]c45)CC[C@]3(C)[C@@H]12 (stereo not given in full) | > 100 | > 100 | > 100 | > 100 | > 100 | > 100 | > 100 | > 100 | > 100 | > 100 | > 100
OC(c1ccc(-c2ccccc2)cc1)C(F)(F)c1nc2ccccc2o1 (stereo not given) | > 100 | > 100 | > 100 | > 100 | > 74.1 | > 100 | > 93.1 | 70.2 | > 100 | 74.6 | > 100
Cc1ccc(/C=C2\CCCC(CN3CCCCC3)C2=O)cc1 (stereo not given) | 7.78 | 4.3 | 28.7 | 2.1 | > 100 | 3.03 | 6.79 | 6.59 | 3.26 | 4.02 | 2.72
COc1nc(N)c(N=CC(OC(C)=O)C(OC(C)=O)C(COC(C)=O)OC(C)=O)c(=O)n1C (stereo not given) | > 100 | > 100 | > 100 | > 100 | > 100 | > 100 | > 100 | > 100 | > 100 | > 100 | > 100
COC(=O)c1c(OC(C)=O)ccc2c1c1c(OC(C)=O)c3ccccc3c(OC(C)=O)c1n2Cc1ccccc1 | 41.1 | 14.7 | 19.8 | > 50 | 26.6 | 45 | > 50 | > 50 | 11.5 | 37.2 | 5.65
